From US9604964B2, “Dihydropyrazole GPR40 modulators” (BRISTOL-MYERS SQUIBB COMPANY, priority 2012, dated 2017)

Biological target: human GPR40 (Homo sapiens, UniProt O14842)
Test: FDSS-based intracellular calcium assay (Human GPR40 in vitro assay)
Assay type: cell-based
Design: 3xFLAG; expressed in transfected cells
Settings: intracellular Ca2+ response, cells expressing GPR40; read-out: hGPR40 EC50
Experimental: FDSS-based Intracellular Calcium Assay
Compounds are dissolved in DMSO and diluted to desired concentrations with assay buffer and added to the cells as 3× solution (20 μL per well). Run fluorescence/luminescence reader FDSS (Hamamatsu) to read intracellular Ca^2+ response.

Sequence of human GPR40 (O14842 whole entry): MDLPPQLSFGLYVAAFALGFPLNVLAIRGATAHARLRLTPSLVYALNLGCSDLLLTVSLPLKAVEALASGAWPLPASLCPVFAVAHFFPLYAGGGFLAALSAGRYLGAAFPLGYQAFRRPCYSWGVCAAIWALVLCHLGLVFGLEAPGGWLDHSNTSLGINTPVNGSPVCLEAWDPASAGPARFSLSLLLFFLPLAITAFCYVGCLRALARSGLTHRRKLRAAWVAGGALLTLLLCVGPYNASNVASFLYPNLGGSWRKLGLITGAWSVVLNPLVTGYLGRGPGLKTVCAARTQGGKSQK

SMILES | EC50 [µM]
COc1cc(N2CCC(Oc3ccc(N4N=C(C#N)C(C)C4CC(=O)O)cc3)C(C)C2)c(Cl)cn1 (single isomer, unassigned) [Example B6, Isomer 2, 2-(1-(4-((1-(5-chloro-2-methoxypyridin-4-yl)-3-methylpiperidin-4-yl)oxy)phenyl)-3-cyano-4-methyl-4,5-dihydro-1H-pyrazol-5-yl)acetic acid] | 4.85
CCOc1ccc(F)c(N2CCC(Cc3ccc(N4N=C(C(F)(F)F)[C@@H](C)[C@@H]4CC(=O)O)cc3)C(C)C2)c1 (single isomer, unassigned) [Example 3 (Isomer 3)] | 1.14
C[C@@H]1C(C(F)(F)F)=NN(c2ccc(OC3CCN(c4cnc(Cl)cn4)CC3)cc2)[C@H]1CC(=O)O [Example 55, 2-((4S,5S)-1-(4-((1-(5-chloropyrazin-2-yl)piperidin-4-yl)oxy)phenyl)-4-methyl-3-(trifluoromethyl)-4,5-dihydro-1H-pyrazol-5-yl)acetic acid] | 6.25
Cc1nc2ccc(N3CCC(Oc4ccc(N5N=C(C(F)(F)F)[C@@H](C)[C@@H]5CC(=O)O)cc4)CC3)cc2o1 [Example B18, 2-((4S,5S)-4-Methyl-1-(4-((1-(2-methylbenzo[d]oxazol-6-yl)piperidin-4-yl)oxy)phenyl)-3-(trifluoromethyl)-4,5-dihydro-1H-pyrazol-5-yl)acetic acid] | 5.2
C[C@@H]1C(C(F)(F)F)=NN(c2ccc(OC3CCN(C(=O)OCc4ccccc4)CC3)cc2)[C@H]1CC(=O)O [Example 14, 2-((4S,5S)-1-(4-((1-((benzyloxy)carbonyl)piperidin-4-yl)oxy)phenyl)-4-methyl-3-(trifluoromethyl)-4,5-dihydro-1H-pyrazol-5-yl)acetic acid] | 4.27
CCOc1ccc(F)c(N2CCC(Oc3ccc(N4N=C(C(F)(F)F)[C@@H](C)[C@@H]4CC(=O)O)cc3)C(Cc3ccccc3)C2)c1 (single isomer, unassigned) [Example 28 (Isomer 1)] | 0.132
CCOc1ccc(F)c(N2CCC(Oc3ccc(N4N=C(C(F)(F)F)[C@@H](C)[C@@H]4CC(=O)O)cc3)C(OC)C2)c1 (single isomer, unassigned) [Example 31 (Isomer 2)] | 0.91
C[C@@H]1C(C(F)(F)F)=NN(c2ccc(OCC3CN(c4ccc5c(c4)OCO5)C3)cc2)[C@H]1CC(=O)O [Example B34, 2-((4S,5S)-1-(4-((1-(benzo[d] [1,3]dioxol-5-yl)azetidin-3-yl)methoxy)phenyl)-4-methyl-3-(trifluoromethyl)-4,5-dihydro-1H-pyrazol-5-yl)acetic acid] | 4.76
C[C@@H]1C(C(F)(F)F)=NN(c2ccc(OC3CCN(c4cc(OC5CCCC5)cc(F)c4F)CC3)cc2)[C@H]1CC(=O)O [Example 19, 2-((4S,5S)-1-(4-((1-(5-(cyclopentyloxy)-2,3-difluorophenyl)piperidin-4-yl)oxy)phenyl)-4-methyl-3-(trifluoromethyl)-4,5-dihydro-1H-pyrazol-5-yl)acetic acid] | 4.82
CCOc1ccc(F)c(N2CCC(Oc3ccc(N4N=C(C#N)C(C)C4CC(=O)O)cc3)CC2)c1 (single isomer, unassigned) [Example B5 Isomer 1, 2-(3-cyano-1-(4-((1-(5-ethoxy-2-fluorophenyl)piperidin-4-yl)oxy)phenyl)-4-methyl-4,5-dihydro-1H-pyrazol-5-yl)acetic acid] | 0.389
COc1cc(N2CC[C@@H](Oc3ccc(N4N=C(C(F)(F)F)[C@@H](C)[C@@H]4CC(=O)O)cc3)[C@H](CO)C2)c(Cl)cn1 [Example B1, 2-((4S,5S)-1-(4-(((3S,4R)-1-(5-chloro-2-methoxypyridin-4-yl)-3-(hydroxymethyl)piperidin-4-yl)oxy)phenyl)-4-methyl-3-(trifluoromethyl)-4,5-dihydro-1H-pyrazol-5-yl)acetic acid] | 2.48
C[C@@H]1C(C(F)(F)F)=NN(c2ccc(OC3CCN(S(=O)(=O)c4ccccc4C#N)CC3)cc2)[C@H]1CC(=O)O [Example B21] | 7.95
C[C@@H]1C(C(F)(F)F)=NN(c2ccc(OC3CCN(S(=O)(=O)C4CCCCC4)CC3)cc2)[C@H]1CC(=O)O [Example B22, 2-((4S,5S)-1-(4-((1-(cyclohexylsulfonyl)piperidin-4-yl)oxy)phenyl)-4-methyl-3-(trifluoromethyl)-4,5-dihydro-1H-pyrazol-5-yl)acetic acid] | 1.33
CCOc1ccc(F)c(N2CCC(Cc3ccc(N4N=C(C(F)(F)F)[C@@H](C)[C@@H]4CC(=O)O)cc3)C(C)C2)c1 (single isomer, unassigned) [Example 3 (Isomer 2)] | 0.471
C[C@@H]1C(C(F)(F)F)=NN(c2ccc(OC3CCN(c4cc5c(cc4Cl)OCO5)CC3)cc2)[C@H]1CC(=O)O [Example B14, 2-((4S,5S)-1-(4-((1-(6-Chlorobenzo[d] [1,3]dioxol-5-yl)piperidin-4-yl)oxy)phenyl)-4-methyl-3-(trifluoromethyl)-4,5-dihydro-1H-pyrazol-5-yl)acetic acid] | 0.569
COc1cc(N2CCC(Oc3ccc(N4N=C(C#N)C(C)C4CC(=O)O)cc3)C(C)C2)c(Cl)cn1 (single isomer, unassigned) [Example B6, Isomer 1, 2-(1-(4-((1-(5-chloro-2-methoxypyridin-4-yl)-3-methylpiperidin-4-yl)oxy)phenyl)-3-cyano-4-methyl-4,5-dihydro-1H-pyrazol-5-yl)acetic acid] | 0.303
C[C@@H]1C(C(F)(F)F)=NN(c2ccc(OC3CCN(C(=O)OC(C)(C)C)CC3)cc2)[C@H]1CC(=O)O [Example 15, 2-((4S,5S)-1-(4-((1-(tert-butoxycarbonyl)piperidin-4-yl)oxy)phenyl)-4-methyl-3-(trifluoromethyl)-4,5-dihydro-1H-pyrazol-5-yl)acetic acid] | 1.72
C[C@@H]1C(C(F)(F)F)=NN(c2ccc(OC3CCN(c4nccs4)CC3)cc2)[C@H]1CC(=O)O [Example 13, 2-((4S,5S)-4-methyl-1-(4-((1-(thiazol-2-yl)piperidin-4-yl)oxy)phenyl)-3-(trifluoromethyl)-4,5-dihydro-1H-pyrazol-5-yl)acetic acid] | 1.69
CCOc1ccc(F)c(N2CCC(Oc3ccc(N4N=C(C#N)C(C)C4CC(=O)O)cc3)C(C)C2)c1 (single isomer, unassigned) [Example B7, Isomer 1, 2-(3-Cyano-1-(4-((1-(5-ethoxy-2-fluorophenyl)-3-methylpiperidin-4-yl)oxy)phenyl)-4-methyl-4,5-dihydro-1H-pyrazol-5-yl)acetic acid] | 0.394
Cc1ccccc1S(=O)(=O)N1CCC(Oc2ccc(N3N=C(C(F)(F)F)[C@@H](C)[C@@H]3CC(=O)O)cc2)CC1 [Example B27, 2-((4S,5S)-4-Methyl-1-(4-((1-(o-tolylsulfonyl)piperidin-4-yl)oxy)phenyl)-3-(trifluoromethyl)-4,5-dihydro-1H-pyrazol-5-yl)acetic acid] | 4.85
COc1ccc(F)c(N2C(=O)[C@@H]3C[C@H]2CC3Oc2ccc(N3N=C(C(F)(F)F)[C@@H](C)[C@@H]3CC(=O)O)cc2)c1 (stereo partly drawn) [Example 68, 2-((4S,5S)-1-(4-(((1S,4R)-2-(2-fluoro-5-methoxyphenyl)-3-oxo-2-azabicyclo[2.2.1]heptan-5-yl)oxy)phenyl)-4-methyl-3-(trifluoromethyl)-4,5-dihydro-1H-pyrazol-5-yl)acetic acid] | 5.04
COCC1CN(c2cc(OC)ncc2Cl)CCC1Oc1ccc(N2N=C(C(F)(F)F)[C@@H](C)[C@@H]2CC(=O)O)cc1 (single isomer, unassigned) [Example B3, Isomer 2] | 0.768
COc1cncc(N2CCC(Oc3ccc(N4N=C(C(F)(F)F)[C@@H](C)[C@@H]4CC(=O)O)cc3)CC2)n1 [Example 53, 2-((4S,5S)-1-(4-((1-(6-methoxypyrazin-2-yl)piperidin-4-yl)oxy)phenyl)-4-methyl-3-(trifluoromethyl)-4,5-dihydro-1H-pyrazol-5-yl)acetic acid] | 4.2
COc1ccc(F)c(N2C3CCC2CC(Oc2ccc(N4N=C(C(F)(F)F)[C@@H](C)[C@@H]4CC(=O)O)cc2)C3)c1 (stereo partly drawn) [Example 2, 2-((4S,5S)-1-(4-((8-(2-fluoro-5-methoxyphenyl)-8-azabicyclo[3.2.1]octan-3-yl)oxy)phenyl)-4-methyl-3-(trifluoromethyl)-4,5-dihydro-1H-pyrazol-5-yl)acetic acid] | 0.644
COCC1CN(c2cc(OC)ncc2Cl)CCC1Oc1ccc(N2N=C(C(F)(F)F)[C@@H](C)[C@@H]2CC(=O)O)cc1 (single isomer, unassigned) [Example B3, Isomer 3] | 2
C[C@@H]1C(C(F)(F)F)=NN(c2ccc(OC3CCN(c4ncc(Cl)cn4)CC3)cc2)[C@H]1CC(=O)O [Example 7, 2-((4S,5S)-1-(4-((1-(5-chloropyrimidin-2-yl)piperidin-4-yl)oxy)phenyl)-4-methyl-3-(trifluoromethyl)-4,5-dihydro-1H-pyrazol-5-yl)acetic acid] | 4.48
COc1cccc(N2CC3CCC(C2)C3Cc2ccc(N3N=C(C(F)(F)F)[C@@H](C)[C@@H]3CC(=O)O)cc2)c1 (stereo partly drawn) [Example B12, 2-((4S,5S)-1-(4-(((1R,5S,8S)-3-(3-methoxyphenyl)-3-azabicyclo[3.2.1]octan-8-yl)methyl)phenyl)-4-methyl-3-(trifluoromethyl)-4,5-dihydro-1H-pyrazol-5-yl)acetic acid] | 5.72
CCOc1ccc(F)c(N2CCC(Cc3ccc(N4N=C(C(F)(F)F)[C@@H](C)[C@@H]4CC(=O)O)cc3)C(C)C2)c1 (single isomer, unassigned) [Example 3 (Isomer 1)] | 3.22
COc1ccc(F)c(N2C[C@@H]3C[C@H]2CC3Oc2ccc(N3N=C(C(F)(F)F)[C@@H](C)[C@@H]3CC(=O)O)cc2)c1 (stereo partly drawn) [Example 70, 2-((4S,5S)-1-(4-(((1S,4S)-2-(2-fluoro-5-methoxyphenyl)-2-azabicyclo[2.2.1]heptan-5-yl)oxy)phenyl)-4-methyl-3-(trifluoromethyl)-4,5-dihydro-1H-pyrazol-5-yl)acetic acid] | 1
